Reference: ChEMBL document CHEMBL3045893, “QSAR analysis of N-myristoyltransferase inhibitors: antifungal activity of benzofurans” (Med Chem Res, 2009)

These compounds were tested against T1, Glycylpeptide N-tetradecanoyltransferase (Candida albicans (strain SC5314 / ATCC MYA-2876) (Yeast), UniProt P30418) (assay: Inhibition of candida N-myristoyltransferase).
T1 sequence (P30418 whole entry): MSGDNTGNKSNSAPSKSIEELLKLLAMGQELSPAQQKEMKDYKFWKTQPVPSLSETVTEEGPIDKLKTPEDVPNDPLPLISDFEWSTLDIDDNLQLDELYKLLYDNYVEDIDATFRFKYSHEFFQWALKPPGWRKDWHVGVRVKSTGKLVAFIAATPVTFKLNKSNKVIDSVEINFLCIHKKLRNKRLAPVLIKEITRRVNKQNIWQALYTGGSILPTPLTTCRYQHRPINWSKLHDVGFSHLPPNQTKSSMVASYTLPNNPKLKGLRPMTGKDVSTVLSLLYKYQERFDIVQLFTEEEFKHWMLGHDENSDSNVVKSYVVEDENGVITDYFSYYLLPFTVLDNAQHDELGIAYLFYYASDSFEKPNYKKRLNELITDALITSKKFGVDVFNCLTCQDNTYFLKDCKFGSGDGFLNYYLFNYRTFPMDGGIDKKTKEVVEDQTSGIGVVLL

IC50 | Structure (SMILES)
7.5 nM | Cc1c(COc2ccc(F)cc2F)oc2cccc(OCCNCc3cccnc3)c12
100 nM | CCOC(=O)c1oc2cccc(OCCNCc3cccnc3)c2c1C
83000 nM | CCOC(=O)c1oc2cccc(OCCNCc3cccnc3)c2c1C(C)C
72 nM | Cc1c(COc2ccccc2)oc2cccc(OCCNCc3cccnc3)c12
10000 nM | CCOC(=O)c1oc2cccc(OCCNCc3cccnc3)c2c1CC
1200 nM | CCOC(=O)c1oc2cccc(OCC(O)CNC(C)(C)C)c2c1C (stereo not drawn)
110 nM | Cc1c(COc2cccc(F)c2)oc2cccc(OCCNCc3cccnc3)c12
79000 nM | CCOC(=O)c1cc2c(OCCNCc3cccnc3)cccc2o1
5.2 nM | Cc1c(COc2ccc(F)cc2)oc2cccc(OCCNCc3cccnc3)c12
1600 nM | CCOC(=O)c1oc2cccc(OCCCN3CCCCC3)c2c1C
8.3 nM | Cc1c(COc2ccccc2F)oc2cccc(OCCNCc3cccnc3)c12
73 nM | Cc1c(COc2ccc(Cl)cc2)oc2cccc(OCCNCc3cccnc3)c12
17 nM | Cc1c(COc2ccccc2C#N)oc2cccc(OCCNCc3cccnc3)c12
4400 nM | CCOC(=O)c1oc2cccc(OCCNCc3cccnc3)c2c1C1CC1
50000 nM | CCOC(=O)c1oc2cccc(OCCNC(C)(C)C)c2c1C
3 nM | COCc1ccc2oc(-c3oc4cccc(OCCNCc5cccnc5)c4c3C)cc2c1
1500 nM | CCOC(=O)c1oc2cccc(OCCCCCNC(C)(C)C)c2c1C
1 nM | CC(=O)c1nccn1-c1oc2cccc(OCCNCc3cccnc3)c2c1C
4400 nM | CCOC(=O)c1oc2cccc(OCCCCNC(C)(C)C)c2c1C
2200 nM | Cc1c(C(=O)Nc2ccccc2)oc2cccc(OCCNCc3cccnc3)c12
9.4 nM | Cc1c(COc2ccc(C#N)cc2)oc2cccc(OCCNCc3cccnc3)c12
1200 nM | Cc1c(CCc2ccccc2)oc2cccc(OCCNCc3cccnc3)c12
3300 nM | CCOC(=O)c1oc2cccc(OCCNCc3ccccc3)c2c1C
